# From US6706703B2, “Bis(5-aryl-2-pyridyl) derivatives” (Kowa Co., Ltd., priority 2001, dated 2004)
# Structures can show the parent of a compound that is named as a salt. Marks after values point to notes of the source that are not given here.
# Key:
# [1] = system: IgE antibody production; test: Evaluation of IgE antibody production inhibiting activity (B cells + LPS + mouse IL-4, IgE in culture supernatant by ELISA); assay type: cell-based; conditions: B-cell, mouse (Balb/C) spleen B cells, LPS 1 day then mouse IL-4 6 days
# Method: Test 1 (Evaluation of IgE Antibody Production Inhibiting Activity)
# From a mouse (Balb/C, male, 8 weeks old), the spleen was enucleated. The spleen was shredded in 10% FEB/RPMI 1640, and was then disintegrated into single cells through a 70-mesh screen. Those single cells were hemolyzed with Gey's solution, and using RPMI 1640 medium/25 mM HEPES/0.3% BSA, a spleen cell suspension (1×10^7 cells/mL) was prepared. After an aliquot of the suspension was reacted with a rat anti-mouse Thy-1.2 monoclonal antibody (product of Cedarlane Laboratories Limited) at 4° C. for 1 hour, centrifugation was conducted. Precipitated cells were suspended again (1×10^7 cells/mL, RPMI/HEPES/BSA). After the suspension was next reacted with a low-cytotoxic rabbit complement (product of Cedarlane Laboratories Limited) at 37° C. for 1 hour, dead cells were removed by specific gravity centrifugation using Lympholyte M (product of Cedarlane Laboratories Limited) so that a B cell fraction was obtained as viable cells.
# Using a 96-well plate, the B cells (2×10^5 cells/0.2 mL/well) were incubated together with LPS (E. coli 026:B6, product of DIFCO Laboratories, Inc.) for 1 day. Mouse IL-4 (product of Genzyme Corp.) was then added, followed by further incubation for 6 days.
# The IgE antibody production inhibiting activity of each drug was calculated by adding the drug Day 1 of the incubation and assaying the quantity of IgE in the culture supernatant by ELISA after the incubation.
# [2] = Solubility of each compound in water; assay type: physicochemical
# Text: Further, the solubility (%) of each compound in water was also estimated.
# [3] = solubility in 0.1M hydrochloric acid (footnote *)
IC50 [1] [nM],Water solubility ([2]; in water) [%],"Water solubility [2, 3]",SMILES
200,5,–,"COc1cc(-c2ccc(N3CCCN(c4ccc(-c5cc(OC)c(OC)c(OC)c5)cn4)CC3)nc2)cc(OC)c1OC [Example 26, 1,4-Bis[5-(3,4,5-trimethoxyphenyl)-2-pyridyl]hexahydro-1,4-diazepine Dimethanesulfonate]"
300,5,–,"COc1cc(-c2ccc(N3CCCN(c4ccc(-c5cc(OC)c(N)c(OC)c5)cn4)CC3)nc2)cc(OC)c1N [Example 34, 1,4-Bis[5-(4-amino-3,5-dimethoxyphenyl)-2-pyridyl]hexahydro-1,4-diazepine Tetrahydrochloride]"
100,–,5* %,"COc1cc(-c2ccc(N3CCN(CCCN4CCN(c5ccc(-c6cc(OC)c(OC)c(OC)c6)cn5)CC4)CC3)nc2)cc(OC)c1OC [Example 57, 1,3-Bis[4-[5-(3,4,5-trimethoxyphenyl)-2-pyridyl]-1-piperazinyl]propane]"
200,–,5* %,"COc1cc(-c2ccc(N3CCCN(c4ccc(-c5cc(OC)c(N(C)C)c(OC)c5)cn4)CC3)nc2)cc(OC)c1N(C)C [Example 35, 1,4-Bis[5-(4-dimethylamino-3,5-dimethoxyphenyl)-2-pyridyl]hexahydro-1,4-diazepine]"
200,5,–,"COc1cc(-c2ccc(N(C)CCN(C)c3ccc(-c4cc(OC)c(OC)c(OC)c4)cn3)nc2)cc(OC)c1OC [Example 58, N,N′-Bis[5-(3,4,5-trimethoxyphenyl)-2-pyridyl]-N,N′-dimethylethylenediamine Dimethanesulfonate]"
